Measured values reported in article PMC7153278, “Discovery of Membrane-Bound Pyrophosphatase Inhibitors Derived from an Isoxazole Fragment” (ACS Medicinal Chemistry Letters, 2020).

Key:
[1] = Colloidal aggregation under TmPPase assay conditions (nephelometry); assay type: physicochemical
Experimental: Aggregation data for 5, 12k and 12l (Figure S1)
Potential colloidal aggregation in the TmPPase model system was studied at five concentrations (50 µM, 25 µM, 10 µM, 5 µM, and 1 µM). The original assay conditions were simulated, and the light scattering of potential aggregates in the mixture was studied by nephelometric methods using Nepheloskan Ascent® (Labsystems, Finland). Aggregation of the blank and compounds 5, 12k and 12l were measured as triplicates from one independent experiment at three different voltages (300 V, 400 V and 500 V) at room temperature.
5 µM and 1 µM concentrations the obtained values were close to those observed by the blank, thereby […]
Figure S1. Aggregation data for compounds 5, 12k and 12l. The data, measured in relative nephelometric units (RNU), is shown as the mean ± SD and normalized to the blank.
(1 picture or pasted object on this page, not shown here)
Experimental procedures and characterization data
Commercial analogues were retrieved by screening the ZINC12 database1 (clean drug-like subset; downloaded on 27.04.2016) using a KNIME2 workflow connected to the RDKit3 nodes. The SAR analyses and docking studies (data not shown) underlying this work were conducted using the Schrödinger molecular modeling platform (Canvas and Glide modules, respectively)4 .
Compounds 1–7, 13–20 and 24 were obtained from commercial suppliers. Supporting Information, Table S1 summarizes the compounds tested. Compound purity was >95% as determined by LC-MS and characterized by HRMS. For all commercial compounds after the initial screen, purity was tested independently from the vendor specification (a few compounds of lower purity are reported only in Supporting Information). To evaluate potential aggregation of samples in the TmPPase based assay, aggregate formation in the assay conditions was studied at five concentrations (50 μM, 25 μM, 10 μM, 5 μM, and 1 μM) for compounds 5, 12k and 12l (Figure S1).
All chemicals used were commercially available. Reactions using anhydrous conditions were conducted in oven-dried (130 °C, >24 h) glassware, purged with argon prior to use. Microwave reactions were performed using a Biotage Initiator+ instrument (Uppsala, Sweden). The progress of the reactions was monitored by thin-layer chromatography on silica gel 60-F254 aluminum plates and visualized by using a dual short/long wave (254/366 nm) UV lamp. The combined organic solutions from extractions were dried over anhydrous Na2SO4, filtered and concentrated with a rotary evaporator at reduced pressure. Flash SiO2 column chromatography was performed with automated high performance flash chromatography, Biotage Isolera™ Spektra Systems with ACI™ and Assist (ISO-1SW Isolera One) equipped with a variable UV-VIS (200–800 nm) photodiode array (Uppsala, Sweden) using SNAP KP-SIL/Ultra 10 g or 25 g cartridges and the indicated mobile phase gradient.
The reactions were not optimized and all the yields are given for purified products.
Characterization of the synthesized products were done by NMR and MS analysis. 1H and 13C NMR spectra were acquired at 298 K on a Bruker Ascend 400 MHz – Avance III HD NMR spectrometer (Bruker Corporation, Billerica, MA, USA). Chemical shifts (δ) are reported in parts per million (ppm) relative to the residual solvent signals: CDCl3 7.26 and 77.16 ppm, CD3OD 3.31 and 49.00 ppm, DMSO-d6 2.50 and 39.52 ppm for 1H and 13C NMR, respectively. […] High resolution mass (HRMS-ESI) data was reported for the calculated and experimentally […]

[2] = biological target: Thermotoga maritima mPPase (TmPPase) (Thermotoga maritima, UniProt Q9S5X0); experiment: TmPPase inhibition assay (96-well plate, orthophosphate determination); assay type: biochemical; settings: for LE (ligand efficiency): computed using the pIC50 and the Heavy Atom Count (LEHA) normalization method, Discovery Studio; for IC50 / IC50 [CI95%]: purified TmPPase
Experimental: The inhibition assay was measured in 96 well plate assay as previously reported.5,6 Briefly, 1 µL of purified TmPPase (13 mg/mL) was reactivated in 99 µL of reactivation buffer (20 mM 2-(N-morpholino) ethanesulfonic acid (MES) pH 6.5, 3.5% (v/v) glycerol, 2 mM dithiothreitol (DTT), 4.5% dodecyl maltoside (DDM) and 12 mg/mL L-α-phosphatidylcholine from soybean) and incubated at 55 °C for 15 min. For the assay, to each tube strips, 0.2 µL of the reactivated enzyme was added to 14.8 µL of reaction buffer (200 mM Tris-Cl pH 8.0, 8.0 mM MgCl2, 333 mM KCl, and 67 mM NaCl) and 25 µL of inhibitor. The reaction mixtures were sealed with an adhesive sealing sheet (Thermo Scientific) and incubated at 71 °C for 5 min. The reactions were started with the addition of 10 µL of 2 mM sodium pyrophosphate, further incubation at 71 °C for 5 min and stopped by placing the reaction mixtures on ice for 10 min. The color development was done with the addition of ammonium heptamolybdate + ascorbic acid solution on ice for 10 min and then 90 µL of arsenic solution, at room temperature, for a minimum of 30 min. 180 µL of each reaction mixtures was then transferred into a clear 96 well polystyrene microplate and the absorbance was measured at 860 nm using a microplate spectrophotometer (MultiSkan Go, Thermo Scientific). The pilot inhibitor screening of 16 phosphate-mimicking fragments was done at 100 μM inhibitor concentration. Further screening was done with three different concentrations; 1 μM, 5 μM and 50 μM for soluble compounds, and 1 μM, 5 μM, and 20 μM for sparingly soluble compounds.6 The best hits were validated using 8 concentrations in triplicate in TmPPase.
The potent hits 12k and 12l compounds were then tested on the P. falciparum (PfPPase-VP1) membrane fractions expressed in baculovirus-infected insect cells (the expression method and further enzyme analysis will be described in more detail elsewhere). Briefly, to each tube strips, 2.4 µL of PfPPase-VP1 membrane fraction (5 mg/mL) was added into 12.6 µL of reaction buffer (200 mM Tris-Cl pH 8.0, 8.0 mM MgCl2, 333 mM KCl, 67 mM NaCl, 3.3 mM NaF, and 17 μM Gramicidin D) and 25 µL of inhibitor. The reaction mixtures were incubated at 30 °C for 5 min and the assay was started by the addition of 10 µL of 2 mM sodium pyrophosphate and further incubation at 30 °C for 10 min. The reaction termination and color development were done as before.
The in vitro anti-plasmodial activity assay strain 3D7 was maintained in culture as described previously.7 Briefly, parasites were cultured in O+ human erythrocytes at 5% haematocrit in RPMI - 1640 medium supplemented with 0.5% Albumax II (Gibco, Carlsbad, CA, USA), 200 μM hypoxanthine (Sigma, St. Louis, MO, USA) and 20 μg/mL gentamycin (Gibco). Parasites were synchronized with the sorbitol method as described. 8 Test compound was dissolved in DMSO to make a stock solution of 10 mM. Two -fold serial dilutions of the test compound were made in the culture medium to cover the range of 400 µM – 400 nM. Fifty microliters of each dilution were mixed in 96 well plate with 150 µL of 2% haematocrit of 0.5% parasitemia (ring stage). DMSO concentration in the highest compound concentration w as 0.1%. After 72 h incubation at 37 °C, the parasite growth was quantified using fluorescent SYBR Green I ® -based assay as described. 9 The half-maximal inhibitory concentration (IC 50) of the test compound was assessed using the non-linear regression fit model in Prism 7 (GraphPad Software). The potent anti-malarial drug, artemisinin, was use in parallel as a positive control. Each concentration of the test compound was tested in duplicate and the assay was repeated three times. The mean and standard deviation of the three repeats were used to estimate the IC50.
IC50 determinations were done using R 3.6.110 and the n-parameter logistic regression (nplr) package11 version 0.1-7. In this package, the weighted nplr, given x (compound concentrations) and […]

[3] = IC50 [CI95%] (µM), unrounded values of the molecular formula strings file
[4] = IC50 [CI95%], 95% confidence interval in square brackets
[5] = 95% confidence interval in square brackets

Sequence of Thermotoga maritima mPPase (TmPPase) (Q9S5X0 whole entry): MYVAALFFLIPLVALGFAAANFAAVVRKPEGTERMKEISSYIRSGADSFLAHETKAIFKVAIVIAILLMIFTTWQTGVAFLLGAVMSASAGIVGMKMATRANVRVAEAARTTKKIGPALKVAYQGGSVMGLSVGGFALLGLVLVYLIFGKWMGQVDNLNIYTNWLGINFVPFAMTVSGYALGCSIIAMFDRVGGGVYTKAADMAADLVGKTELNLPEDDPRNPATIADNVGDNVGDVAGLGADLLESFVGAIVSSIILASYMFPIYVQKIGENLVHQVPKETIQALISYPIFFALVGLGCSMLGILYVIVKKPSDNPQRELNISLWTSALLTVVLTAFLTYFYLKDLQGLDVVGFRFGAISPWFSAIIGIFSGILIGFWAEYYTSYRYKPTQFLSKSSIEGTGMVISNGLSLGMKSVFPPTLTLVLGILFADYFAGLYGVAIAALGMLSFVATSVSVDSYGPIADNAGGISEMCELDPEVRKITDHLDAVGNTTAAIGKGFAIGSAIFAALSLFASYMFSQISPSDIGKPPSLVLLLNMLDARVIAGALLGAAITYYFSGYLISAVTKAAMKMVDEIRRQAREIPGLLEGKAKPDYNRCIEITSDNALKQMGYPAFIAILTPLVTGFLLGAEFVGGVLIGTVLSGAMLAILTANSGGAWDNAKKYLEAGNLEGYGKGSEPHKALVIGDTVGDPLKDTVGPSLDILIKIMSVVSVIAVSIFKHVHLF

Cc1nc(-c2cc(C(=O)O)no2)cs1 [Compound 5]
aggregation (light scattering) ([1]; 50, 25, 10, 5 and 1 µM, room temperature): no detectable aggregation at all | LE (ligand efficiency) [2]: 0.34

Cc1cc(C)cc(-c2cc(C(=O)Oc3ccccc3Br)no2)c1 [Compound 12k]
aggregation (light scattering) ([1]; at 10 µM, 5 µM and 1 µM): only minor/no detectable aggregation | aggregation (light scattering) ([1]; at 50 µM and 25 µM): showed aggregate formation | LE (ligand efficiency) [2]: 0.22

CCOC(=O)c1cc(-c2ccc(OC)c(S(=O)(=O)Nc3ccc(F)c(Cl)c3)c2)on1 [SI-31]
IC50 [2, 3]: 58 µM | IC50 [2, 4]: 58 µM

CCOC(=O)c1cc(-c2ccc(OC)c(S(=O)(=O)Nc3ccc(Cl)cc3F)c2)on1 [SI-32]
IC50 [2, 3]: 122 µM | IC50 [2, 4]: 122 µM

CCOC(=O)c1cc(-c2ccc(OC)c(S(=O)(=O)Nc3ccc(Cl)cc3)c2)on1 [SI-33]
IC50 [2, 3]: 280 µM | IC50 [2, 4]: 280 µM

CC(C)(C)c1cc(CC(=O)O)cc(C(C)(C)C)c1 [SI-42]
IC50 [CI95%] [2, 5]: Inactive

CC(C)(C)c1cc(C(N)=O)cc(C(C)(C)C)c1 [SI-43]
IC50 [CI95%] [2, 5]: Inactive

CC(C)(C)c1cc(C(O)CC(=O)NN)cc(C(C)(C)C)c1 (stereo not drawn) [SI-44]
IC50 [CI95%] [2, 5]: Inactive

CC(C)(C)c1cc(CN)cc(C(C)(C)C)c1 [SI-45]
IC50 [CI95%] [2, 5]: Inactive

CC(C)(C)c1cc(CO)cc(C(C)(C)C)c1 [SI-46]
IC50 [CI95%] [2, 5]: Inactive

CC(C)(C)c1cc(C(=O)Nc2ccccc2C(=O)O)cc(C(C)(C)C)c1 [SI-47]
IC50 [CI95%] [2, 5]: Inactive

CC(C)(C)c1cc(C(=O)NCCN2CCOCC2)cc(C(C)(C)C)c1 [SI-48]
IC50 [CI95%] [2, 5]: Inactive

CC(C)(C)c1cc(C(=O)OCCN2CCOCC2)cc(C(C)(C)C)c1 [SI-49]
IC50 [2, 3]: 340 µM | IC50 [2, 4]: 340 µM

CCOC(=O)c1cc(-c2ccccc2)[nH]n1 [SI-50]
IC50 [CI95%] [2, 5]: Inactive

CCOC(=O)c1cc(-c2ccc([N+](=O)[O-])cc2)[nH]n1 [SI-51]
IC50 [CI95%] [2, 5]: Inactive

O=C(O)c1csc(-c2ccc(C(F)(F)F)cc2)n1 [SI-52]
IC50 [CI95%] [2, 5]: Inactive

O=C(Oc1ccccc1Br)c1cc(-c2ccc([N+](=O)[O-])cc2)[nH]n1 [SI-53]
IC50 [CI95%] [2, 5]: Slightly

Cc1ccc(-c2cc(C(=O)Oc3ccccc3Br)no2)cc1C [SI-54]
IC50 [2, 3]: 17.4 µM | IC50 [2, 4]: 17 µM | LE (ligand efficiency) [2]: 0.20
